Laboratory results: a compilation of properties of binary mixtures (doi:10.1016/j.molliq.2022.120022)

Test: xn = mol fraction of the nth substance listed
Details: 100 kPa

O + C[N+](C)(C)CCO.NCC(=O)[O-]
x2 = 0
Details | speed of sound [m/s] | viscosity [mPa·s]
298.15 K | – | 0.89
303.15 K | – | 0.8
308.15 K | – | 0.72
313.15 K | 1529 | 0.66
318.15 K | – | 0.61
323.15 K | – | 0.56

C[N+](C)(C)CCO.NCC(=O)[O-] + O
Details | speed of sound [m/s] | viscosity [mPa·s]
298.15 K, x1 = 0.1 | 1927.4 | 5.83
298.15 K, x1 = 0.2004 | 2082.9 | 23.73
298.15 K, x1 = 0.3 | 2134.5 | 56.96
298.15 K, x1 = 0.3996 | 2152.4 | 99
298.15 K, x1 = 0.5004 | 2156.2 | 154.4
298.15 K, x1 = 0.6004 | 2156 | 216
298.15 K, x1 = 0.6966 | 2153.1 | 274
298.15 K, x1 = 0.8014 | 2151.8 | 348
298.15 K, x1 = 0.8996 | 2146 | 420
303.15 K, x1 = 0.1 | 1922.7 | 5.01
303.15 K, x1 = 0.2004 | 2073.3 | 19.44
303.15 K, x1 = 0.3 | 2122.9 | 45.62
303.15 K, x1 = 0.3996 | 2140.5 | 77.3
303.15 K, x1 = 0.5004 | 2144.8 | 115.5
303.15 K, x1 = 0.6004 | 2143.4 | 160.8
303.15 K, x1 = 0.8014 | 2136.2 | 257
303.15 K, x1 = 0.8996 | 2133.2 | 306
303.15 K, x1 = 1 | 2129.1 | 363
308.15 K, x1 = 0.2004 | 2063.4 | 16.15
308.15 K, x1 = 0.3 | 2111.5 | 37.06
308.15 K, x1 = 0.5004 | 2132.2 | 89.6
308.15 K, x1 = 0.6004 | 2130.3 | 122.8
308.15 K, x1 = 0.6966 | 2127.8 | 153.5
308.15 K, x1 = 0.8014 | 2125.2 | 191.6
308.15 K, x1 = 0.8996 | 2120.1 | 227
308.15 K, x1 = 1 | 2116 | 264
313.15 K, x1 = 0.1 | 1911.9 | 3.8
313.15 K, x1 = 0.2004 | 2053.2 | 13.57
313.15 K, x1 = 0.3 | 2099.8 | 30.58
313.15 K, x1 = 0.6004 | 2118 | 95.3
313.15 K, x1 = 0.6966 | 2115 | 118.6
313.15 K, x1 = 0.8014 | 2112.1 | 147.4
313.15 K, x1 = 0.8996 | 2107.2 | 172.7
313.15 K, x1 = 1 | 2103.5 | 201
318.15 K, x1 = 0.2004 | 2043 | 11.51
318.15 K, x1 = 0.6004 | 2105.6 | 75.6
318.15 K, x1 = 0.6966 | 2102.3 | 92.7
318.15 K, x1 = 0.8014 | 2098.7 | 114.4
318.15 K, x1 = 0.8996 | 2094.2 | 134.5
323.15 K, x1 = 0.1 | 1899.4 | 2.97
323.15 K, x1 = 0.2004 | 2032.2 | 9.83
323.15 K, x1 = 0.3 | 2076.6 | 21.79
323.15 K, x1 = 0.3996 | 2091.4 | 34.59
323.15 K, x1 = 0.5004 | 2094.9 | 46.6
323.15 K, x1 = 0.6004 | 2092.8 | 60.8
323.15 K, x1 = 0.6966 | 2089.9 | 74.1
323.15 K, x1 = 0.8014 | 2086.3 | 91
323.15 K, x1 = 0.8996 | 2081.8 | 105.2
323.15 K, x1 = 1 | 2078.3 | 121.1
